# Measured values published in the supplement of paper PMC10331698.
# ± gives the standard deviation of the averaged measurements.
# What was measured:
# Test in all cases: level (log10 ratio to DMSO vehicle control); higher = higher biomarker level / cell amount than vehicle control
# Settings in all cases: in DMSO
# [1] = compound: O=S(=O)(O)CCC(F)(F)C(F)(F)C(F)(F)C(F)(F)C(F)(F)C(F)(F)F [6:2 Fluorotelomer sulfonic acid]
# Protocol: (§1)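 BioMAP Diversity Plus panel of 12 human primary cell co-culture systems (3C, 4H, LPS, SAg, BT, BF4T, BE3C, CASM3C, HDF3CGF, KF3CT, MyoF, Mphg). Compounds were added 1 h before stimulation and left for 24 h (MyoF 48 h; BT 72 h for soluble read-outs or 6 d for IgG). Biomarkers were read by ELISA, cytotoxicity by SRB, PBMC viability and proliferation by Alamar Blue. Each well value was divided by the mean of 8 DMSO control wells on the same plate and log10 transformed; duplicate blinded samples were tested at 4 concentrations.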
# [2] = compound: O=C(O)C(F)(F)C(F)(F)C(F)(F)C(F)(F)C(F)(F)C(F)(F)C(F)(F)C(F)(F)C(F)(F)C(F)F [11-H-Perfluoroundecanoic acid]
# Protocol: as §1
# Nonafluoropentanamide = compound: NC(=O)C(F)(F)C(F)(F)C(F)(F)C(F)(F)F [Nonafluoropentanamide]
# Protocol: as §1
# Hexafluoroamylene glycol = compound: OCC(F)(F)C(F)(F)C(F)(F)CO [Hexafluoroamylene glycol]
# Protocol: as §1
# [3] = compound: FC(F)(F)C(F)(F)C(F)(F)C(F)(F)C(F)(F)C(F)(F)CC1CO1 [3-(Perfluorohexyl)-1,2-epoxypropane]
# Protocol: as §1
# [4] = compound: O=S(=O)(Cl)C(F)(F)C(F)(F)C(F)(F)C(F)(F)C(F)(F)C(F)(F)C(F)(F)C(F)(F)F [Perfluoro-1-octanesulfonyl chloride]
# Protocol: as §1
Test System,level (log10) ([1]; 6700 nM),level (log10) ([1]; 20000 nM),level (log10) ([1]; 60000 nM),level (log10) ([2]; 6700 nM),level (log10) ([2]; 20000 nM),level (log10) (Nonafluoropentanamide; 6700 nM),level (log10) (Nonafluoropentanamide; 20000 nM),level (log10) (Nonafluoropentanamide; 60000 nM),level (log10) (Hexafluoroamylene glycol; 6700 nM),level (log10) (Hexafluoroamylene glycol; 20000 nM),level (log10) (Hexafluoroamylene glycol; 60000 nM),level (log10) ([3]; 6700 nM),level (log10) ([3]; 20000 nM),level (log10) ([3]; 60000 nM),level (log10) ([4]; 6700 nM),level (log10) ([4]; 20000 nM),level (log10) ([4]; 60000 nM)
BF4T:MMP-9,-0.0015 ± 0.036,-0.0095 ± 0.0078,0.018 ± 0.024,-0.042 ± 0.047,-0.154 ± 0.021,-0.026 ± 0.068,-0.051 ± 0.016,0.004 ± 0.017,-0.0045 ± 0.011,-0.0165 ± 0.0035,0.0105 ± 0.035,0.001 ± 0.0071,0.005 ± 0.0071,0.023 ± 0.04,0.0055 ± 0.0078,0.0065 ± 0.021,-0.314 ± 0.083
BF4T:PAI-I,0.0075 ± 0.005,-0.0235 ± 0.012,-0.0265 ± 0.0078,-0.0455 ± 0.025,-0.146 ± 0.034,-0.0145 ± 0.0064,-0.0055 ± 0.0035,0.0015 ± 0.021,-0.0025 ± 0.013,-0.002 ± 0.021,0.0065 ± 0.0064,0.003 ± 0.0085,0.007,0.007 ± 0.018,-0.001 ± 0.0085,-0.015 ± 0.0099,-0.17 ± 0.0078
BF4T:SRB,0.0005 ± 0.00071,-0.003 ± 0.0042,-0.003 ± 0.0057,-0.012 ± 0.0014,-0.103 ± 0.0092,-0.018 ± 0.0042,-0.017 ± 0.016,-0.019 ± 0.0028,0.0025 ± 0.018,0.002 ± 0.0085,0 ± 0.0057,-0.008 ± 0.011,-0.0105 ± 0.0078,0.0015 ± 0.019,-0.0015 ± 0.005,-0.011 ± 0.0014,-0.251 ± 0.0085
BF4T:tPA,-0.008 ± 0.027,-0.036 ± 0.028,-0.0355 ± 0.036,-0.131 ± 0.019,-0.133,-0.021 ± 0.018,-0.043 ± 0.023,-0.0405 ± 0.0078,-0.017 ± 0.021,-0.0015 ± 0.0092,0.012 ± 0.038,0.0155 ± 0.039,-0.011 ± 0.0085,0.031 ± 0.034,-0.0495 ± 0.029,-0.047 ± 0.057,-0.181 ± 0.085
BF4T:uPA,0.0085 ± 0.019,-0.013 ± 0.0028,-0.001 ± 0.018,-0.0095 ± 0.036,-0.051 ± 0.038,-0.03 ± 0.023,0.009 ± 0.013,0.025 ± 0.0014,-0.0065 ± 0.021,-0.006 ± 0.014,0.004 ± 0.0057,-0.0045 ± 0.011,-0.0115 ± 0.0064,0.012 ± 0.04,-0.028 ± 0.03,-0.025 ± 0.025,-0.113 ± 0.046
BT:PBMC Cytotoxicity,0.007,0.0235 ± 0.0064,0.045 ± 0.0014,0.0055 ± 0.0035,0.0375 ± 0.0064,0.024 ± 0.0042,0.02 ± 0.0028,0.0155 ± 0.011,0.008 ± 0.024,0.008 ± 0.0057,-0.005 ± 0.0099,-0.016 ± 0.0028,-0.017 ± 0.025,0.0175 ± 0.016,0.0495 ± 0.016,0.055,0.114 ± 0.0021
BT:Secreted IgG,0.0005 ± 0.054,-0.048 ± 0.031,-0.081 ± 0.048,0.007 ± 0.021,0.0175 ± 0.0092,-0.001 ± 0.0014,-0.006 ± 0.0099,-0.005 ± 0.014,0.022 ± 0.048,0.0275 ± 0.037,0.023 ± 0.017,-0.0085 ± 0.032,-0.0035 ± 0.018,-0.0005 ± 0.018,-0.033 ± 0.0042,-0.0265 ± 0.039,-0.042 ± 0.034
BT:sIL-2,-0.0555 ± 0.011,0.0325 ± 0.018,-0.01 ± 0.031,-0.0265 ± 0.013,-0.008 ± 0.083,0.0345 ± 0.053,0.002 ± 0.033,-0.0105 ± 0.011,0.0335 ± 0.022,0.0145 ± 0.054,0.0365 ± 0.056,-0.0165 ± 0.049,0.0215 ± 0.0035,0.007,0.0385 ± 0.047,0.104 ± 0.042,0.13 ± 0.018
BT:sIL-6,0.0255 ± 0.039,0.0375 ± 0.016,0.003 ± 0.052,-0.033 ± 0.034,-0.0465 ± 0.046,-0.0015 ± 0.039,-0.0035 ± 0.036,-0.0665 ± 0.03,0.0575 ± 0.0078,0.015 ± 0.031,0.014 ± 0.021,0.007 ± 0.079,0.014 ± 0.025,-0.019 ± 0.02,0.0135 ± 0.016,0.043 ± 0.025,0.0195 ± 0.033
BT:sIL-17F,0.0005 ± 0.064,0.0725 ± 0.012,0.0155 ± 0.011,0.0115 ± 0.0092,-0.0225 ± 0.049,-0.0305 ± 0.12,-0.0695 ± 0.14,-0.101 ± 0.15,0.0185 ± 0.069,0.028 ± 0.041,0.05 ± 0.033,-0.051 ± 0.15,-0.012 ± 0.096,-0.0315 ± 0.079,0.062 ± 0.054,0.0385 ± 0.0035,0.0705 ± 0.012
BT:sTNF-alpha,-0.011 ± 0.031,0.0335 ± 0.07,-0.021 ± 0.04,0.016 ± 0.059,-0.051 ± 0.024,0.089 ± 0.086,0.031 ± 0.069,0.0565 ± 0.04,0.0165 ± 0.037,0.0085 ± 0.022,0.0215 ± 0.064,0.013 ± 0.11,0.128 ± 0.0064,0.0765 ± 0.14,0.067 ± 0.042,0.126 ± 0.016,0.102 ± 0.16
SAg:CXCL8/IL-8,-0.012 ± 0.025,0.0325 ± 0.039,0.064 ± 0.03,-0.0115 ± 0.019,-0.0115 ± 0.05,-0.0285 ± 0.039,-0.027 ± 0.02,-0.0305 ± 0.076,-0.0285 ± 0.073,-0.0175 ± 0.0092,0.052 ± 0.035,-0.0135 ± 0.021,-0.029 ± 0.013,0.0075 ± 0.026,-0.011 ± 0.011,0.012 ± 0.0099,0.093 ± 0.016
SAg:CXCL9/MIG,-0.002 ± 0.018,-0.0035 ± 0.015,-0.0045 ± 0.012,-0.005 ± 0.011,-0.011,0.003 ± 0.014,-0.0035 ± 0.013,0.0185 ± 0.015,-0.0015 ± 0.011,-0.016 ± 0.016,-0.003 ± 0.0071,0.008 ± 0.0085,0.006 ± 0.0057,0.002 ± 0.0042,-0.007 ± 0.0071,-0.018 ± 0.0028,0.0075 ± 0.021
SAg:PBMC Cytotoxicity,0.0105 ± 0.00071,0 ± 0.0071,0.0305 ± 0.029,0.002 ± 0.045,0.0035 ± 0.021,0.009 ± 0.02,-0.0005 ± 0.013,0.0295 ± 0.018,0.0135 ± 0.00071,0.008 ± 0.014,0.005 ± 0.03,0.01 ± 0.037,-0.0055 ± 0.011,0.025 ± 0.0071,0.01 ± 0.025,0.0045 ± 0.016,0.067 ± 0.0085
SAg:Proliferation,-0.019 ± 0.027,-0.0255 ± 0.023,-0.0225 ± 0.0035,-0.0145 ± 0.03,0.019 ± 0.0071,-0.01 ± 0.052,-0.05 ± 0.034,-0.0945 ± 0.1,-0.024 ± 0.041,-0.0395 ± 0.013,-0.039 ± 0.0042,0.013 ± 0.014,-0.0105 ± 0.019,0.013 ± 0.051,0.0235 ± 0.044,0.0205 ± 0.04,0.0395 ± 0.036
SAg:SRB,-0.012 ± 0.0057,-0.0045 ± 0.0021,-0.0045 ± 0.021,0.0155 ± 0.005,0.0035 ± 0.011,-0.0025 ± 0.00071,-0.0055 ± 0.00071,-0.0045 ± 0.0078,-0.0015 ± 0.00071,-0.004 ± 0.0028,-0.0005 ± 0.019,-0.007 ± 0.0099,-0.012 ± 0.0042,0.006 ± 0.016,-0.001 ± 0.0042,-0.0045 ± 0.011,-0.107 ± 0.033
